Legend:
[1] = tested on: arachidonic acid metabolites in mouse plasma; assay: plasma oxylipin metabolites in mice exposed to LPS (LC-MS/MS); format: in vivo; conditions: AUDA-BE 20 mg/Kg alone
[2] = tail flick assay, without induction of pain; format: in vivo, mice; conditions: sc in oleic oil, responses after 90 minutes; no induction of pain
Experimental: Briefly, mice are kept under 12:12 h light: dark cycle and water and food is supplied ad libitum. Mice are trained for three days to the experimental chambers in 30 min sessions each time. The next day baseline readings are taken. Vehicle control (oleic oil) is then injected sc in the next day and measurements are taken. Two days later, animals are injected through the sc route with test compounds dissolved in the oil vehicle and their responses are recorded after 90 minutes.
Tail flick and hind paw withdrawal latency tests are conducted according to D'Amour and Smith, J Pharmacol Exp Ther 72:74-9 (1941), and Woolfe and McDonald, J Pharmacol Exp Ther, 80:300-7 (1944). In tail flick assays, mice are placed in restrainers and left undisturbed for 30 minutes. Readings are then taken by placing the posterior end of the tail onto a tail flick apparatus that has a radiant heat source set to 55 C. Five measurements per animal are taken at two-minute intervals. The latency to move the tail is recorded. In hind paw withdrawal assays, the mice are placed in an experimental chamber with a glass surface. The temperature of this surface is kept constant at 30° C. After a 30-minute period of acclimation, radiant heat is applied to the plantar surface of the hind paw. Five measurements per animal are taken at two-minute intervals. The latency to move the paw is recorded. […]

COX-2 protein = assay: Western immunoblot of COX-2 protein in livers of mice; format: in vivo; conditions: liver; LPS 10 mg/Kg i.p.; COX-2 inhibitor 50 mg/Kg or AUDA-BE 20 mg/Kg sc (FIG. 8)
Experimental: Horizontal axis: treatment administered to the mice. First column: vehicle (oleic acid, administered subcutaneously (“s.c.” or “sc”)). Second column: lipopolysaccharide (“LPS”, 10 mg/Kg i.p.) and vehicle. […] Fifth column: AUDA-BE (20 mg/Kg sc). Sixth column: AUDA-BE (20 mg/Kg sc)+LPS (10 mg/Kg i.p.). […] Vertical axis: depicts percentage of protein induced in test animals receiving designated treatment compared to that of control mice receiving vehicle without LPS.
Western immunoblot analysis was performed with proteins isolated from liver to detect cycloxygenase 2 (COX-2). The isolated proteins were separated by electrophoresis on 10% SDS-PAGE and then transferred onto polyvinylidene fluoride membranes (Immobilon P, Millipore Corp., Bedford, Mass.). […] The membranes were incubated with rabbit anti-mouse HRP-linked IgG (Amersham, Arlington Heights, Ill.) at 1:10,000 dilution, washed, then contacted with secondary antibody and visualized using SuperSignal® West Femto Maximum Sensitivity Substrate (Pierce Biotechnology, Inc., Rockford, Ill.), a chemiluminiscence detection system, per manufacturer's instructions. The immunodetectable bands were quantified by densitometry with Kodak 1.D Image Analysis System v.

COX-2 / COX-1 = conditions: the smaller the ratio, the more specific for COX-2; cited from earlier work
sEH = target: T1, sEH (Homo sapiens, UniProt P34913); assay: inhibition of soluble epoxide hydrolase; format: biochemical
T1 sequence (P34913 1-555): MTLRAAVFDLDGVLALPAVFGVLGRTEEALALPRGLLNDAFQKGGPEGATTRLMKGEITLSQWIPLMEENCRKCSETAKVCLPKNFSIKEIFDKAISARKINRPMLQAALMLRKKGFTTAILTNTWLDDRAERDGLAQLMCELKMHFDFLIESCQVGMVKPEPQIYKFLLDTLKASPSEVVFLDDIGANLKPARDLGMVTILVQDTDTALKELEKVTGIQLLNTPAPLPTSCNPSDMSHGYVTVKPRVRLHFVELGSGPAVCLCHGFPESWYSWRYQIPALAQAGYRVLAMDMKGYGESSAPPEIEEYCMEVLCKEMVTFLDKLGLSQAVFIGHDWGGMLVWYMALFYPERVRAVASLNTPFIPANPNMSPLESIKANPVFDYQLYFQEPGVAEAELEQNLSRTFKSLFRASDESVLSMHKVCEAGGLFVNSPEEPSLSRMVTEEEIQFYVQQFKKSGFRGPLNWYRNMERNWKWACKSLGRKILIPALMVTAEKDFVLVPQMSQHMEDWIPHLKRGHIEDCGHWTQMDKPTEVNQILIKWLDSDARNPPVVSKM
Source text: Any of a number of standard assays for determining epoxide hydrolase activity can be used to determine inhibition of sEH. For example, suitable assays are described in Gill, et al., Anal Biochem 131, 273-282 (1983); and Borhan, et al., Analytical Biochemistry 231, 188-200 (1995)). Suitable in vitro assays are described in Zeldin et al., J Biol. Chem. 268:6402-6407 (1993). Suitable in vivo assays are described in Zeldin et al., Arch Biochem Biophys 330:87-96 (1996). […]
The enzyme also can be detected based on the binding of specific ligands to the catalytic site which either immobilize the enzyme or label it with a probe such as dansyl, fluoracein, luciferase, green fluorescent protein or other reagent. […] The enzyme also can be detected based on the generation of fluorescent products following the hydrolysis of the epoxide. […]

metabolic stability = format: in vitro ADME

## CCCCOC(=O)CCCCCCCCCCCNC(=O)NC12CC3CC(CC(C3)C1)C2 [AUDA-BE, 12-(3-adamantane-1-yl-ureido)-dodecanoic acid butyl ester]
[1]
  5-HETE, percentage of metabolite compared to control mice receiving vehicle without LPS: 262±21%
  6-keto-PGF1a, percentage of metabolite compared to control mice receiving vehicle without LPS: 128±6%
  PGE2, percentage of metabolite compared to control mice receiving vehicle without LPS: 241±2%
  ΣDHOME, percentage of metabolite compared to control mice receiving vehicle without LPS: 141±15%
  ΣEpOME, percentage of metabolite compared to control mice receiving vehicle without LPS: 122±8%
[2]
  analgesic effect in tail flick assay: slight but significant analgesic effect
COX-2 protein
  amount of COX-2 relative to control mice: about 4 times

## CC(=O)Oc1ccccc1C(=O)O [Aspirin, aspirin]
COX-2 / COX-1
  COX-2 (IC50)/COX-1 (IC50) ratio: 0.32

## CCCCCCCCCCCCNC(=O)NC12CC3CC(CC(C3)C1)C2 [ADU, N-Adamantyl-N′-dodecyl urea]
sEH
  activity as an inhibitor of sEH: particularly high activity
Metabolic stability
  metabolic stability: metabolically stable

Source: US7951831B2, “Use of inhibitors of soluble epoxide hydrolase to synergize activity of COX and 5-LOX inhibitors” (The Regents of the University of California, priority 2005, dated 2011)
